# Measured values reported in patent US20150141435A1, “2-PYRIDONE ANTIMICROBIAL COMPOSITIONS” (Emergent BioSolutions, priority 2010, published 2015).
# Structures can show the parent of a compound that is named as a salt. Where two headings read alike, the source gives them in different places.
# Tests used:
# Type in all cases: cell-based
# S. pneumonia ATCC 49619 = test: MIC, CLSI broth microdilution (Table 1); details: Streptococcus pneumoniae
# A. baumannii ATCC 19606 = test: MIC, CLSI broth microdilution (Table 2); details: Acinetobacter baumannii
# [1] = tested on: Bacillus anthracis Ames strain; test: microbe, parasite or virus in culture
# [2] = tested on: Brucella abortus ATCC 23448; test: microbe, parasite or virus in culture; details: ATCC23448
# E. faecium ATCC 19434 = test: MIC, CLSI broth microdilution (Table 1); details: Enterococcus faecium
# E. faecalis ATCC 29212 = test: MIC, CLSI broth microdilution (Table 1); details: Enterococcus faecalis
# E. coli ATCC 25922 = test: MIC, CLSI broth microdilution (Table 2); details: Escherichia coli
# [3] = tested on: Burkholderia mallei ATCC 23344; test: microbe, parasite or virus in culture; details: ATCC23344
# K. pneumoniae ATCC 33495 = test: MIC, CLSI broth microdilution (Table 2); details: Klebsiella pneumoniae
# [4] = tested on: S. aureus BAA-1720 (MRSA, FQ-R); test: MIC, CLSI broth microdilution (Table 1); details: Staphylococcus aureus, read-out: MIC S. aureus BAA-1720 (MRSA, FQ-R)
# P. aeruginosa ATCC 27853 = test: MIC, CLSI broth microdilution (Table 2); details: Pseudomonas aeruginosa
# [5] = tested on: Burkholderia pseudomallei ATCC 23343; test: microbe, parasite or virus in culture; details: ATCC23343
# [6] = tested on: Francisella tularensis Schu S4; test: microbe, parasite or virus in culture; details: SCHUS4
# H. influenzae ATCC 49247 = test: MIC, CLSI broth microdilution (Table 2); details: Haemophilus influenzae
# S. aureus ATCC 25923 = test: MIC, CLSI broth microdilution (Table 1); details: Staphylococcus aureus
# [7] = tested on: S. aureus ATCC 43300 (MRSA, FQ-S); test: MIC, CLSI broth microdilution (Table 1); details: Staphylococcus aureus, read-out: MIC S. aureus ATCC 43300 (MRSA, FQ-S)
# Yersinia pestis C092 = test: microbe, parasite or virus in culture
# [8] = tested on: S. maltophilia ATCC 17677; test: MIC, CLSI broth microdilution (Table 2); details: Stenotrophomonas maltophilia
# [9] = ATCC49619, Gram positive, MHB, 37° C., 16-20 hours, read-out: MIC S. pneumonia ATCC 49619
# [10] = ATCC19606, Gram negative, MHB, 37° C., 16-20 hours, read-out: MIC A. baumannii B. ATCC 19606
# [11] = ATCC19434, Gram positive, MHB, 37° C., 16-20 hours, read-out: MIC E. faecium ATCC 19434
# [12] = ATCC29212, Gram positive, MHB, 37° C., 16-20 hours, read-out: MIC E. faecalis ATCC 29212
# [13] = ATCC25922, Gram negative, MHB, 37° C., 16-20 hours, read-out: MIC E. coli ATCC 25922
# [14] = ATCC33495, read-out: MIC K. pneumoniae ATCC 33495
# [15] = Gram positive, MHB, 37° C., 16-20 hours
# [16] = ATCC27853, Gram negative, MHB, 37° C., 16-20 hours, read-out: MIC P. aeruginosa ATCC 27853
# [17] = ATCC49247, Gram negative, MHB, 37° C., 16-20 hours, read-out: MIC H. influenzae ATCC 49247
# [18] = ATCC25923, Gram positive, MHB, 37° C., 16-20 hours, read-out: MIC S. aureus ATCC 25923
# [19] = ATCC17677, Gram negative, MHB, 37° C., 16-20 hours, read-out: MIC S. maltophilia ATCC 17677
# [20] = ATCC29212, read-out: MIC E. faecalis ATCC 29212
# [21] = ATCC49619, read-out: MIC S. pneumonia ATCC 49619
# [22] = ATCC19606, read-out: MIC A. baumannii B. ATCC 19606
# [23] = ATCC19434, read-out: MIC E. faecium ATCC 19434
# [24] = ATCC25922, read-out: MIC E. coli ATCC 25922
# [25] = ATCC27853, read-out: MIC P. aeruginosa ATCC 27853
# [26] = ATCC49247, read-out: MIC H. influenzae ATCC 49247
# [27] = ATCC25923, read-out: MIC S. aureus ATCC 25923
# [28] = ATCC17677, read-out: MIC S. maltophilia ATCC 17677
# [29] = ATCC33495, Gram negative, MHB, 37° C., 16-20 hours, read-out: MIC K. pneumoniae ATCC 33495
SMILES,MIC [1] [µg/mL],MIC [2] [µg/mL],MIC (E. faecium ATCC 19434; [11]) [µg/mL],MIC (E. coli ATCC 25922; [13]) [µg/mL],MIC [3] [µg/mL],MIC (K. pneumoniae ATCC 33495; [14]) [µg/mL],MIC [5] [µg/mL],MIC [6] [µg/mL],MIC (Yersinia pestis C092) [µg/mL],MIC (E. faecalis ATCC 29212; [20]) [µg/mL],MIC (S. pneumonia ATCC 49619; [21]) [µg/mL],MIC (A. baumannii ATCC 19606; [22]) [µg/mL],MIC (E. faecium ATCC 19434; [23]) [µg/mL],MIC (E. coli ATCC 25922; [24]) [µg/mL],MIC [4] [µg/mL],MIC (P. aeruginosa ATCC 27853; [25]) [µg/mL],MIC (H. influenzae ATCC 49247; [26]) [µg/mL],MIC (S. aureus ATCC 25923; [27]) [µg/mL],MIC [7] [µg/mL],"MIC [8, 28] [µg/mL]",further results
"Cc1c(-c2cc(N)cc(F)c2)ccn2c(=O)c(C(=O)O)cc(C3CC3)c12 [Example 9 K salt, 8-(3-amino-5-fluoro-phenyl)-1-cyclopropyl-9-methyl-4-oxo-4H-quinolizine-3-carboxylic acid]",0.008,0.063,0.5,0.064,0.125 to 0.25,0.125 to 0.25,0.25,0.016,0.031,,,,,,,,,,,,"MIC (S. pneumonia ATCC 49619; [9]): 0.064 µg/mL; MIC (A. baumannii ATCC 19606; [10]): 0.125 µg/mL; MIC (E. faecalis ATCC 29212; [12]): 0.032 µg/mL; MIC [4, 15]: 0.25 µg/mL; MIC (P. aeruginosa ATCC 27853; [16]): 2 µg/mL; MIC (H. influenzae ATCC 49247; [17]): 0.008 µg/mL; MIC (S. aureus ATCC 25923; [18]): 0.008 µg/mL; MIC [7, 15]: 0.008 µg/mL; MIC [8, 19]: 0.25 µg/mL"
"Cc1c(-c2ccnc(F)c2)ccn2c(=O)c(C(=O)O)cc(C3CC3)c12 [Example 20 K salt, 1-cyclopropyl-8-(2-fluoro-pyridin-4-yl)-9-methyl-4-oxo-4H-quinolizine-3-carboxylic acid]",0.031,0.063,1,0.064,0.125,0.125 to 0.25,0.25,0.008 to 0.016,0.063,0.125,,,,,,,,,,,"MIC (S. pneumonia ATCC 49619; [9]): 0.25 µg/mL; MIC (A. baumannii ATCC 19606; [10]): 0.25 µg/mL; MIC [4, 15]: 1 µg/mL; MIC (P. aeruginosa ATCC 27853; [16]): 2 to 4 µg/mL; MIC (H. influenzae ATCC 49247; [17]): ≤ 0.004 µg/mL; MIC (S. aureus ATCC 25923; [18]): 0.032 µg/mL; MIC [7, 15]: 0.016 µg/mL; MIC [8, 19]: 0.25 µg/mL"
"Cc1c(-c2ccc(N)nc2)ccn2c(=O)c(C(=O)O)cc(C3CC3)c12 [Example 21 K salt, 8-(6-amino-pyridin-3-yl)-1-cyclopropyl-9-methyl-4-oxo-4H-quinolizine-3-carboxylic acid]",0.016,0.063,,,0.125 to 0.25,0.064,0.25 to 0.5,0.031,0.031,0.032,0.032,0.064 to 0.125,0.5,0.016 to 0.032,0.25,1 to 2,≤ 0.004,0.008,0.008,0.125,
"Cc1c(-c2ccc3[nH]ncc3c2)ccn2c(=O)c(C(=O)O)cc(C3CC3)c12 [Example 23 K salt, 1-cyclopropyl-8-(1H-indazol-5-yl)-9-methyl-4-oxo-4H-quinolizine-3-carboxylic acid]",0.004,0.016,,,0.063,0.125,0.063,0.016,0.016 to 0.031,0.008,0.064,0.125,0.25,0.032,0.125,2,≤ 0.004,≤ 0.004,≤ 0.004,0.064,
"Cc1c(-c2cc(F)c(N)cc2F)ccn2c(=O)c(C(=O)O)cc(C3CC3)c12 [Example 28 K salt, 8-(4-amino-2,5-difluoro-phenyl)-1-cyclopropyl-9-methyl-4-oxo-4H-quinolizine-3-carboxylic acid]",0.004,0.031 to 0.063,,,0.125 to 0.25,0.25 to 0.5,0.125,0.008,0.016 to 0.031,0.016,0.032,0.125,0.25,0.032 to 0.064,0.064,2,≤ 0.004,≤ 0.004,≤ 0.004,0.125,
"Cc1c(-c2ccc(CN)cc2)ccn2c(=O)c(C(=O)O)cc(C3CC3)c12 [Example 31 K salt, 8-(4-(aminomethyl)-phenyl)-1-cyclopropyl-9-methyl-4-oxo-4H-quinolizine-3-carboxylic acid]",0.016 to 0.031,0.25,,,0.5 to 1,0.125 to 0.25,1,0.125 to 0.5,0.25,0.25,0.125,0.25,2,0.032,1,1,0.016,0.064,0.032,0.125,
"Cc1c(-c2ccc(Cl)cc2)ccn2c(=O)c(C(=O)O)cc(C3CC3)c12 [Example 45 K salt, 1-cyclopropyl-8-(4-chloro-phenyl)-9-methyl-4-oxo-4H-quinolizine-3-carboxylic acid]",0.016,0.031,0.5 to 1,0.25,0.063 to 0.125,,0.063 to 0.125,0.008 to 0.016,0.031,,,,,,,,,,,,"MIC (S. pneumonia ATCC 49619; [9]): 0.25 µg/mL; MIC (A. baumannii ATCC 19606; [10]): 0.25 µg/mL; MIC (E. faecalis ATCC 29212; [12]): 0.064 µg/mL; MIC (K. pneumoniae ATCC 33495; [29]): 0.5 to 1 µg/mL; MIC [4, 15]: 0.5 µg/mL; MIC (P. aeruginosa ATCC 27853; [16]): 2 µg/mL; MIC (H. influenzae ATCC 49247; [17]): 0.016 µg/mL; MIC (S. aureus ATCC 25923; [18]): 0.016 to 0.032 µg/mL; MIC [7, 15]: 0.016 µg/mL; MIC [8, 19]: 0.25 µg/mL"
"Cc1c(-c2ccc(O)cc2)ccn2c(=O)c(C(=O)O)cc(C3CC3)c12 [Example 46 K salt, 1-cyclopropyl-8-(4-hydroxy-phenyl)-9-methyl-4-oxo-4H-quinolizine-3-carboxylic acid]",0.004,0.031,,,0.063,0.064,0.063,0.016,0.008 to 0.016,0.016,0.032,0.064,0.25,0.032,0.125,1 to 2,≤ 0.004,≤ 0.004,≤ 0.004,0.125,
"Cc1c(-c2ccc(CO)cc2)ccn2c(=O)c(C(=O)O)cc(C3CC3)c12 [Example 48 K salt, 1-cyclopropyl-8-(4-hydroxy-methyl-phenyl)-9-methyl-4-oxo-4H-quinolizine-3-carboxylic acid]",0.008,0.031,1,0.064,0.125,,0.125,0.016,0.031,,0.125,0.125,,,,,,,,,"MIC (E. faecalis ATCC 29212; [12]): 0.032 to 0.064 µg/mL; MIC (K. pneumoniae ATCC 33495; [29]): 0.25 µg/mL; MIC [4, 15]: 0.5 µg/mL; MIC (P. aeruginosa ATCC 27853; [16]): 2 µg/mL; MIC (H. influenzae ATCC 49247; [17]): ≤ 0.004 µg/mL; MIC (S. aureus ATCC 25923; [18]): 0.008 to 0.016 µg/mL; MIC [7, 15]: 0.008 µg/mL; MIC [8, 19]: 0.25 µg/mL"
